This is an account of results in patent publication US5182265A, “Pharmacologically active peptide derivatives and pharmaceutical preparations containing them” (SPA Societa' Prodotti Antibiotici S.p.A., priority 1989, dated 1993).

Where a name gives a salt, the structure may show the parent alone. Where a SMILES comes first, the peptide text is derived from it.

The data set can be described thus: Water solubility of the salts (qualitative remark in the preparation). The data set is classed as physicochemical. Particulars: qualitative description of the isolated salt. The method, then:
H-Thr-Asp-D-Tyr-OH is dissolved in 5 volumes of water, and the solution is added with an equivalent amount of 1N HCl.
The solution is concentrated to small volume under vacuum and added with acetone.

For `C[C@@H](O)[C@H](N)C(=O)N[C@@H](CC(=O)O)C(=O)N[C@@H](Cc1ccc(O)cc1)C(=O)O` [H-Thr-Asp-Tyr-OH lysine salt] (H-Thr-Asp-Tyr-OH), the “water solubility of the isolated powder” value was “freely water soluble”.

On to `C[C@@H](O)[C@H](N)C(=O)N[C@@H](CC(=O)O)C(=O)N[C@H](Cc1ccc(O)cc1)C(=O)O` [H-Thr-Asp-D-Tyr-OH hydrochloride] (HELM PEPTIDE1{T.D.[dY]}$$$$V2.0), for which the “water solubility of the isolated powder” value is on record as “very water soluble”.
